Source: patent US6982348B2, “Aminoethanol derivatives” (Takeda Pharmaceutical Company Limited, priority 2001, dated 2006)

SMILES	melting point
O=C(O)COc1ccc([C@@H](O)[C@H](Cc2cccc(OC(F)(F)C(F)F)c2)NC(=O)c2cccc3c2C=CCCC3)cc1 (racemic) [Example 251, (4-{(1RS,2SR)-2-[(6,7-dihydro-5H-benzo[a][7]annulen-1-ylcarbonyl)amino]-1-hydroxy-3-[3-(1,1,2,2-tetrafluoroethoxy)phenyl]propyl}phenoxy)acetic acid]	119 to 120 °C
COc1cccc([C@H](O)[C@@H](Cc2cccc(OC(F)(F)C(F)F)c2)NC(=O)c2cccc3c2C=CCCC3)c1 (racemic) [Example 253, N-{(1RS,2SR)-2-hydroxy-2-(3-methoxyphenyl)-1-[3-(1,1,2,2-tetrafluoroethoxy)benzyl]ethyl}-6,7-dihydro-5H-benzo[a][7]annulene-1-carboxamide]	155 to 156 °C
CC(C)(C)OC(=O)N[C@H](Cc1cccc(OC(F)(F)C(F)F)c1)[C@@H](O)c1ccc(Oc2ccccc2)cn1 (racemic) [Example 254, tert-butyl (1RS,2RS)-2-hydroxy-2-(5-phenoxypyridin-2-yl)-1-[3-(1,1,2,2-tetrafluoroethoxy)benzyl]ethylcarbamate]	129 to 130 °C
O=C(N[C@H](Cc1cccc(OC(F)(F)C(F)F)c1)[C@@H](O)c1ccc(Oc2ccccc2)cn1)c1cccc2c1C=CCCC2 (racemic) [Example 255, N-{(1RS,2RS)-2-hydroxy-2-(5-phenoxypyridin-2-yl)-1-[3-(1,1,2,2-tetrafluoroethoxy)benzyl]ethyl}-6,7-dihydro-5H-benzo[a][7]annulene-1-carboxamide]	147 to 148 °C
O=C(N[C@H](Cc1cccc(OC(F)(F)C(F)F)c1)[C@@H](O)c1ccc(Oc2ccccc2)cn1)c1ccc(F)c2ccccc12 (racemic) [Example 256, 4-fluoro-N-{(1RS,2RS)-2-hydroxy-2-(5-phenoxypyridin-2-yl)-1-[3-(1,1,2,2-tetrafluoroethoxy)benzyl]ethyl}-1-naphthamide]	146 to 147 °C
CC(C)(C)OC(=O)N[C@H](Cc1cccc(OC(F)(F)C(F)F)c1)[C@@H](O)c1ccc(Oc2ccccn2)cc1 (racemic) [Example 257, tert-butyl (1RS,2SR)-2-hydroxy-2-[4-(pyridin-2-yloxy)phenyl]-1-[3-(1,1,2,2-tetrafluoroethoxy)benzyl]ethylcarbamate]	130 to 131 °C
O=C(N[C@H](Cc1cccc(OC(F)(F)C(F)F)c1)[C@@H](O)c1ccc(Oc2ccccn2)cc1)c1cccc2c1C=CCCC2 (racemic) [Example 258, N-{(1RS,2SR)-2-hydroxy-2-[4-(pyridin-2-yloxy)phenyl]-1-[3-(1,1,2,2-tetrafluoroethoxy)benzyl]ethyl}-6,7-dihydro-5H-benzo[a][7]annulene-1-carboxamide]	160 to 161 °C
O=C(N[C@H](Cc1cccc(OC(F)(F)C(F)F)c1)[C@@H](O)c1ccc(Oc2ccccn2)cc1)c1ccc(F)c2ccccc12 (racemic) [Example 259, 4-fluoro-N-{(1RS,2SR)-2-hydroxy-2-[4-(pyridin-2-yloxy)phenyl]-1-[3-(1,1,2,2-tetrafluoroethoxy)benzyl]ethyl}-1-naphthamide]	176 to 177 °C
CC(C)(C)OC(=O)N[C@H](Cc1cccc(OC(F)(F)C(F)F)c1)[C@@H](O)c1ccc(Oc2cccnc2)cc1 (racemic) [Example 260, tert-butyl (1RS,2SR)-2-hydroxy-2-[4-(pyridin-3-yloxy)phenyl]-1-[3-(1,1,2,2-tetrafluoroethoxy)benzyl]ethylcarbamate]	123 to 124 °C
O=C(N[C@H](Cc1cccc(OC(F)(F)C(F)F)c1)[C@@H](O)c1ccc(Oc2cccnc2)cc1)c1cccc2c1C=CCCC2 (racemic) [Example 261, N-{(1RS,2SR)-2-hydroxy-2-[4-(pyridin-3-yloxy)phenyl]-1-[3-(1,1,2,2-tetrafluoroethoxy)benzyl]ethyl}-6,7-dihydro-5H-benzo[a][7]annulene-1-carboxamide]	133 to 134 °C
O=C(N[C@H](Cc1cccc(OC(F)(F)C(F)F)c1)[C@@H](O)c1ccc(Oc2cccnc2)cc1)c1ccc(F)c2ccccc12 (racemic) [Example 262, 4-fluoro-N-{(1RS,2SR)-2-hydroxy-2-[4-(pyridin-3-yloxy)phenyl]-1-[3-(1,1,2,2-tetrafluoroethoxy)benzyl]ethyl}-1-naphthamide]	183 to 184 °C
O=C(N[C@H](Cc1cccc(OC(F)(F)C(F)F)c1)[C@@H](O)c1cccc(F)c1)c1ccc(F)c2ccccc12 (racemic) [Example 263, 4-fluoro-N-{(1RS,2SR)-2-(3-fluorophenyl)-2-hydroxy-1-[3-(1,1,2,2-tetrafluoroethoxy)benzyl]ethyl}-1-naphthamide]	175 to 176 °C
O=C(N[C@H](Cc1cccc(OC(F)(F)C(F)F)c1)[C@@H](O)c1cccc(Cl)c1)c1ccc(F)c2ccccc12 (racemic) [Example 264, 4-fluoro-N-{(1RS,2SR)-2-(3-chlorophenyl)-2-hydroxy-1-[3-(1,1,2,2-tetrafluoroethoxy)benzyl]ethyl}-1-naphthamide]	177 to 178 °C
O=C(N[C@H](Cc1cccc(OC(F)(F)C(F)F)c1)[C@@H](O)c1ccnc(F)c1)c1ccc(F)c2ccccc12 (racemic) [Example 265, 4-fluoro-N-{(1RS,2SR)-2-(2-fluoropyridin-4-yl)-2-hydroxy-1-[3-(1,1,2,2-tetrafluoroethoxy)benzyl]ethyl}-1-naphthamide]	170 to 171 °C
O=C(N[C@H](Cc1cccc(OC(F)(F)C(F)F)c1)[C@@H](O)c1cccc(F)n1)c1ccc(F)c2ccccc12 (racemic) [Example 266, 4-fluoro-N-{(1RS,2RS)-2-(6-fluoropyridin-2-yl)-2-hydroxy-1-[3-(1,1,2,2-tetrafluoroethoxy)benzyl]ethyl}-1-naphthamide]	185 to 186 °C
O=C(N[C@H](Cc1cccc(OC(F)(F)C(F)F)c1)[C@@H](O)c1ccc(Oc2ccccc2)cc1)c1ccc(F)c2ccccc12 (racemic) [Example 267, 4-fluoro-N-{(1RS,2SR)-2-hydroxy-2-(4-phenoxyphenyl)-1-[3-(1,1,2,2-tetrafluoroethoxy)benzyl]ethyl}-1-naphthamide]	155 to 156 °C
O=C(N[C@H](Cc1cccc(SC(F)(F)F)c1)[C@@H](O)c1ccc(F)cc1)c1ccc(F)c2ccccc12 (racemic) [Example 269, 4-fluoro-N-((1RS,2SR)-2-(4-fluorophenyl)-2-hydroxy-1-{3-[(trifluoromethyl)thio]benzyl}ethyl)-1-naphthamide]	192 to 193 °C
O=C(N[C@H](Cc1ccc2c(c1)OC(F)(F)C(F)(F)O2)[C@@H](O)c1ccc(F)cc1)c1cccc2c1C=CCCC2 (racemic) [Example 270, N-{(1RS,2SR)-2-(4-fluorophenyl)-2-hydroxy-1-[(2,2,3,3-tetrafluoro-2,3-dihydro-1,4-benzodioxin-6-yl)methyl]ethyl}-6,7-dihydro-5H-benzo[a][7]annulene-1-carboxamide]	184 to 185 °C
CC(C)(C)c1ccc(C[C@@H](NC(=O)c2cccc3c2C=CCCC3)[C@@H](O)c2cccc(Cl)c2)cc1 (racemic) [Example 272, N-[(1RS,2SR)-1-(4-tert-butylbenzyl)-2-(3-chlorophenyl)-2-hydroxyethyl]-6,7-dihydro-5H-benzo[a][7]annulene-1-carboxamide]	142 to 143 °C
CC(C)(C)c1ccc(C[C@@H](NC(=O)c2ccc(F)c3ccccc23)[C@@H](O)c2cccc(Cl)c2)cc1 (racemic) [Example 273, N-[(1RS,2SR)-1-(4-tert-butylbenzyl)-2-(3-chlorophenyl)-2-hydroxyethyl]-4-fluoro-1-naphthamide]	144 to 145 °C
CC(C)(C)c1ccc(C[C@@H](NC(=O)c2cccc3c(F)cccc23)[C@@H](O)c2cccc(Cl)c2)cc1 (racemic) [Example 275, N-[(1RS,2SR)-1-(4-tert-butylbenzyl)-2-(3-chlorophenyl)-2-hydroxyethyl]-5-fluoro-1-naphthamide]	102 to 103 °C
CC(C)(C)Oc1ccc(C[C@@H](NC(=O)c2cccc3c2C=CCCC3)[C@@H](O)c2cccc(Cl)c2)cc1 (racemic) [Example 276, N-[(1RS,2SR)-1-(4-tert-butoxybenzyl)-2-(3-chlorophenyl)-2hydroxyethyl]-6,7-dihydro-5H-benzo[a][7]annulene-1-carboxamide]	180 to 181 °C
CC(C)(C)Oc1ccc(C[C@@H](NC(=O)c2ccc(F)c3ccccc23)[C@@H](O)c2cccc(Cl)c2)cc1 (racemic) [Example 277, N-[(1RS,2SR)-1-(4-tert-butoxybenzyl)-2-(3-chlorophenyl)-2-hydroxyethyl]-4-fluoro-1-naphthamide]	161 to 162 °C
CC(C)(C)Oc1ccc(C[C@@H](NC(=O)c2cccc3c(Cl)cccc23)[C@@H](O)c2cccc(Cl)c2)cc1 (racemic) [Example 278, N-[(1RS,2SR)-1-(4-tert-butoxybenzyl)-2-(3-chlorophenyl)-2-hydroxyethyl]-5-chloro-1-naphthamide]	132 to 133 °C
CC(C)(C)OC(=O)N[C@H](Cc1cccc(S(=O)(=O)C(F)(F)F)c1)[C@@H](O)c1ccc(F)cc1 (racemic) [Example 279, tert-butyl (1RS,2SR)-2-(4-fluorophenyl)-2-hydroxy-1-{3-[(trifluoromethyl)sulfonyl]benzyl}ethylcarbamate]	152 to 153 °C
O=C(N[C@H](Cc1cccc(S(=O)(=O)C(F)(F)F)c1)[C@@H](O)c1ccc(F)cc1)c1cccc2c1C=CCCC2 (racemic) [Example 280, N-((1RS,2SR)-2-(4-fluorophenyl)-2-hydroxy-1-{3-[(trifluoromethyl)sulfonyl]benzyl}ethyl)-6,7-dihydro-5H-benzo[a][7]annulene-1-carboxamide]	156 to 157 °C
O=C(N[C@H](Cc1cccc(S(=O)(=O)C(F)(F)F)c1)[C@@H](O)c1ccc(F)cc1)c1ccc(F)c2ccccc12 (racemic) [Example 281, 4-fluoro-N-((1RS,2SR)-2-(4-fluorophenyl)-2-hydroxy-1-{3-[(trifluoromethyl)sulfonyl]benzyl}ethyl)-1-naphthamide]	157 to 158 °C
